Patent US10087195B2, “Certain protein kinase inhibitors” (Shanghai Fochon Pharmaceutical Co., Ltd., priority 2014, dated 2018)

Key:
BE(2)-C Cells = test: BE(2)-C cell proliferation assay (MTS); assay type: cell-based; conditions: Homo sapiens, compound treatment 72 hours
Method: BE(2)-C Cells were plated in 96-well plates with 150 μl culture medium at cell density of 5000 cells/well. Compounds dilution: 20 mM stock solution of all compounds in DMSO. On the day of treatment, compounds were fresh diluted from the stock solution to a working solution (4× of final concentrations) in culture medium. 50 μl of compound mixtures were added to duplicate wells along with 150 μl of cells. 24 hours after BE(2)-C cells were plated, testing compounds were added. Cell proliferation was measured by MTS assay following manufacturer's instruction after compound treatment for 72 hours.

COLO-205 cells = test: COLO-205 cell proliferation assay (MTS), mechanism-based assay for CDK4/6 inhibition; conditions: Homo sapiens, compound treatment 48 h, MTS absorbance 490 nm, read-out: COLO205 IC50
Method: To investigate whether a compound is able to inhibit the activity of CDK4/6 in cells, a mechanism-based assay using COLO-205 cell was developed. In this assay, inhibition of CDK4/6 was detected by the inhibition of COLO-205 cells proliferation. COLO-205 cells were cultured in culture flasks to 40-80% confluence in RPMI-1640 plus 10% fetal bovine serum. Cells were collected and plated onto 96-well plates at desired cell density (2000 cells/well). Plates were incubated overnight at 37° C., with 5% CO2 to adhere. Compounds were added to the plates, the final compound concentrations were […], 123.5, 41.2, 13.7, 4.6 and 1.5 nM. Place plates at 37° C., with 5% CO2 for 48 h. After removing the medium, 20 μl MTS/100 μl medium mixture solution were added to each well and incubate the plates for exactly 1.5 hours. Stop the reaction by adding 25 μl 10% SDS per well. Measure absorbance at 490 nm and 650 nm (reference wavelength). IC50 was calculated using GraphPad Prism 5.0.

Row | SMILES | IC50 (BE(2)-C Cells) [nM] | IC50 (COLO-205 cells) [nM]
1 | CN(C)C(=O)c1sc2cnc(Nc3ccc(N4CCNCC4)cn3)nc2c1C1CCCC1 [Example 1, 7-Cyclopentyl-N,N-dimethyl-2-(5-(piperazin-1-yl)pyridin-2-ylamino)thieno[3,2-d]pyrimidine-6-carboxamide] | 38.5 | 1110
2 | CN1CCN(c2ccc(Nc3ncc4sc(C(=O)N(C)C)c(C5CCCC5)c4n3)nc2)CC1 [Example 2, 7-Cyclopentyl-N,N-dimethyl-2-(5-(4-methylpiperazin-1-yl)pyridin-2-ylamino)thieno[3,2-d]pyrimidine-6-carboxamide] | 24.1 | 339
3 | CN(C)C(=O)c1cc2cnc(Nc3ccc(N4CCNCC4)cn3)nn2c1C1CCCC1 [Example 5, 7-cyclopentyl-N,N-dimethyl-2-((5-(piperazin-1-yl)pyridin-2-yl)amino)pyrrolo[2,1-f][1,2,4]triazine-6-carboxamide] | 601 | 517
4 | CN(C)C(=O)c1oc2cnc(Nc3ccc(N4CCNCC4)cn3)nc2c1C1CCCC1 [Example 7, 7-cyclopentyl-N,N-dimethyl-2-((5-(piperazin-1-yl)pyridin-2-yl)amino)furo[3,2-d]pyrimidine-6-carboxamide] | – | 711
5 | NC(=O)c1sc2cnc(Nc3ccc(N4CCNCC4)cn3)nc2c1C1CCCC1 [Example 73, 7-cyclopentyl-2-((5-(piperazin-1-yl)pyridin-2-yl)amino)thieno[3,2-d]pyrimidine-6-carboxamide] | – | 624
6 | CN(C)C(=O)c1sc2cnc(Nc3ccc4c(n3)CCNC4)nc2c1[C@H]1CC[C@H](C)CC1 [Example 87, N,N-dimethyl-7-((1r,4r)-4-methylcyclohexyl)-2-((5,6,7,8-tetrahydro-1,6-naphthyridin-2-yl)amino)thieno[3,2-d]pyrimidine-6-carboxamide] | – | 450
7 | CN1CCc2nc(Nc3ncc4sc(C(=O)N(C)C)c([C@H]5CC[C@H](C)CC5)c4n3)ccc2C1 [Example 88, N,N-dimethyl-2-((6-methyl-5,6,7,8-tetrahydro-1,6-naphthyridin-2-yl)amino)-7-((1r,4r)-4-methylcyclohexyl)thieno[3,2-d]pyrimidine-6-carboxamide] | – | 855
8 | CC(=O)N1CCc2nc(Nc3ncc4sc(C(=O)N(C)C)c([C@H]5CC[C@H](C)CC5)c4n3)ccc2C1 [Example 89, 2-((6-acetyl-5,6,7,8-tetrahydro-1,6-naphthyridin-2-yl)amino)-N,N-dimethyl-7-((1r,4r)-4-methylcyclohexyl)thieno[3,2-d]pyrimidine-6-carboxamide] | – | 389
9 | CN(C)C(=O)c1sc2cnc(Nc3ccc4c(n3)CCN(C(=O)CO)C4)nc2c1[C@H]1CC[C@H](C)CC1 [Example 90, 2-((6-(2-hydroxyacetyl)-5,6,7,8-tetrahydro-1,6-naphthyridin-2-yl)amino)-N,N-dimethyl-7-((1r,4r)-4-methylcyclohexyl)thieno[3,2-d]pyrimidine-6-carboxamide] | – | 270
10 | CN(C)C(=O)c1sc2cnc(Nc3ccc(N4CCNCC4)nn3)nc2c1[C@H]1CC[C@H](C)CC1 [Example 91, N,N-dimethyl-7-((1r,4r)-4-methylcyclohexyl)-2-((6-(piperazin-1-yl)pyridazin-3-yl)amino)thieno[3,2-d]pyrimidine-6-carboxamide] | – | 223
